Results published in patent US11390631B1, “Benzodiazepine derivatives as RSV inhibitors” (priority 2015, dated 2022).
Where two headings read alike, the source gives them in different places.

Legend:
[1] = test system: Human RSV-A (“Long” strain); assay: RSV-A assay: inhibition of cytopathic effect in Hep-2 cells, ATPlite readout; type: cell-based, Human respiratory syncytial virus (HRSV); details: read-out: Human RSV-A (“Long” strain) EC50
Procedure, shortened: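 Cytopathic-effect protection was read as ATP content (ATPlite luminescence) after a 5-day incubation. Setup: Hep-2 cells at 8,000 per well, RSV-A Long at MOI 0.1, 2-fold serial compound dilutions in duplicate. Cytotoxicity (CC50) was measured on an identical uninfected plate run in parallel.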

[2] = Cytotoxicity on parallel plate without virus, ATPlite readout; type: cell-based; details: human, Hep-2 cells (no virus), Hep-2 cells without virus, 5-day incubation
Method: Following extensive parameter testing, the final assay is run as follows: Hep-2 cells are seeded into the inner 60 wells of a 96-well plate at 8,000 cells per well in a volume of 50 μL using Growth Media (DMEM without phenol red, 1% L-Glut, 1% Penn/Strep, 1% nonessential amino acids, 10% heat-inactivated FBS). 2-fold serial dilutions of control and test compounds are added to the wells in duplicate in a total volume of 25 μL. Viral stock is then added to the wells at a multiplicity of infection (MOI) of 0.1 in a volume of 25 μL, bringing the total volume of each well to 100 μL. The MOI is calculated using the PFU/mL, or TCID50 if unavailable. Each 96-well plate has a control column of 6 wells with cells and virus but no compound (negative control, max CPE), a column with cells but no compound or virus (positive control, minimum CPE), and a column with no cells or virus or compound (background plate/reagent control). The control wells with cells but no virus are given an additional 25 uL of growth media containing an equal quantity of sucrose as those wells receiving the viral stock in order to keep consistent in media and volume conditions. The outer wells of the plate are filled with 125 μL of moat media (DMEM, 1% Penn/Strep) to act as a thermal and evaporative moat around the test wells. Following a 5-day incubation period, the plates are read using ATPlite (50 uL added per well), which quantifies the amount of ATP (a measure of cell health) present in each well. Assay plates are read using the Envision luminometer. In parallel, cytotoxicity is examined on an additional 96-well plate treated in an identical manner, but substituting the 25 μL of viral stock for 25 μL of growth media. […] EC50 ranges are as follows: A<0.4 μM; B 0.4-0.8 μM; C>0.8 μM and CC50 ranges are as follows: A>50 μM; B 10-50 μM; C<10 μM.

[3] = human respiratory syncytial virus, HEp-2, 120 h
[4] = Hep-2 cells, MOI 0.1, 5-day incubation, ATPlite

| SMILES | EC50 [1, 3] | CC50 at 5 days [2] | EC50 [1, 4] |
| --- | --- | --- | --- |
| COCCOc1cccc(-c2nnc(NC3N=C(c4ccccc4)c4ccccc4NC3=O)o2)c1 (stereo not drawn) [Example 1] | > 800 nM | > 50 µM |  |
| O=C1Nc2ccccc2C(c2ccccc2)=NC1Nc1nnc(-c2ccccc2)o1 (stereo not drawn) [Example 2] | > 800 nM | > 50 µM |  |
| O=C1Nc2ccccc2C(c2ccccc2)=NC1Nc1nnc(-c2cccc(F)c2)o1 (stereo not drawn) [Example 3] | > 800 nM | > 50 µM |  |
| COc1cccc(-c2nnc(NC3N=C(c4ccccc4)c4ccccc4NC3=O)o2)c1 (stereo not drawn) [Example 4] | > 800 nM | > 50 µM |  |
| O=C1Nc2ccccc2C(c2ccccc2)=NC1Nc1nnc(C2CC2)o1 (stereo not drawn) [Example 5] | > 800 nM | > 50 µM |  |
| O=C1Nc2ccccc2C(c2ccccc2)=NC1Nc1nnc(-c2ccccc2F)o1 (stereo not drawn) [Example 6] | > 800 nM | > 50 µM |  |
| O=C1Nc2ccccc2C(c2ccccc2)=N[C@H]1Nc1nnc(-c2ccc(F)cc2)o1 [Example 7b] | > 800 nM | 10 to 50 µM |  |
| COc1ccc(-c2nnc(NC3N=C(c4ccccc4)c4ccccc4NC3=O)o2)cc1 (stereo not drawn) [Example 8] | > 800 nM | > 50 µM |  |
| COc1ccccc1-c1nnc(NC2N=C(c3ccccc3)c3ccccc3NC2=O)o1 (stereo not drawn) [Example 9] | > 800 nM | > 50 µM |  |
| O=C1Nc2ccccc2C(c2ccccc2)=N[C@@H]1Nc1nnc(-c2ccco2)o1 [Example 10a] | 400 to 800 nM | > 50 µM |  |
| O=C1Nc2ccccc2C(c2ccccc2)=N[C@H]1Nc1nnc(-c2ccco2)o1 [Example 10b] | > 800 nM | < 10 µM |  |
| O=C1Nc2ccccc2C(c2ccccc2)=NC1Nc1nnc(-c2ccccn2)o1 (stereo not drawn) [Example 11] | 400 to 800 nM | > 50 µM |  |
| N#Cc1ccc(-c2nnc(NC3N=C(c4ccccc4)c4ccccc4NC3=O)o2)cc1 (stereo not drawn) [Example 12] | 400 to 800 nM | > 50 µM |  |
| O=C1Nc2ccccc2C(c2ccccc2)=NC1Nc1nnc(-c2ccc(Cl)cc2)o1 (stereo not drawn) [Example 13] | < 400 nM | > 50 µM |  |
| COc1cc(-c2nnc(NC3N=C(c4ccccc4)c4ccccc4NC3=O)o2)ccc1F (stereo not drawn) [Example 14] | < 400 nM | 10 to 50 µM |  |
| CC(C)Oc1cccc(-c2nnc(NC3N=C(c4ccccc4)c4ccccc4NC3=O)o2)c1 (stereo not drawn) [Example 15] | 400 to 800 nM | > 50 µM |  |
| O=C1Nc2ccccc2C(c2ccccc2)=NC1Nc1nnc(-c2ccc3ccccc3c2)o1 (stereo not drawn) [Example 16] | 400 to 800 nM | > 50 µM |  |
| O=C1Nc2ccccc2C(c2ccccc2)=NC1Nc1nnc(-c2cccc3ccccc23)o1 (stereo not drawn) [Example 17] | > 800 nM | > 50 µM |  |
| Cc1nnc(NC2N=C(c3ccccc3)c3ccccc3NC2=O)o1 (stereo not drawn) [Example 18] | > 800 nM | > 50 µM |  |

| SMILES | EC50 [1, 3] | CC50 at 5 days [2] | EC50 [1, 4] |
| --- | --- | --- | --- |
| Cc1ccc(-c2nnc(NC3N=C(c4ccccc4)c4ccccc4NC3=O)o2)s1 (stereo not drawn) [Example 19] | > 800 nM | > 50 µM |  |
| O=C1Nc2ccccc2C(c2ccccc2)=NC1Nc1nnc(-c2ccc(Cl)o2)o1 (stereo not drawn) [Example 20] | > 800 nM | > 50 µM |  |
| O=C1Nc2ccccc2C(c2ccccc2)=NC1Nc1nnc(C2CCOCC2)o1 (stereo not drawn) [Example 21] | > 800 nM | > 50 µM |  |
| O=C1Nc2ccccc2C(c2ccccc2)=NC1Nc1nnc(Cc2ccccc2)o1 (stereo not drawn) [Example 22] | > 800 nM | > 50 µM |  |
| O=C1Nc2ccccc2C(c2ccccc2)=NC1Nc1nnc(-c2ccc(F)cn2)o1 (stereo not drawn) [Example 23] | > 800 nM | > 50 µM |  |
| O=C1Nc2ccccc2C(c2ccccc2)=NC1Nc1nnc(-c2ccc(C(F)(F)F)cn2)o1 (stereo not drawn) [Example 25] | > 800 nM | > 50 µM |  |
| Cc1cccc(-c2nnc(NC3N=C(c4ccccc4)c4ccccc4NC3=O)o2)n1 (stereo not drawn) [Example 26] | > 800 nM | > 50 µM |  |
| CS(=O)(=O)c1ccc(-c2nnc(NC3N=C(c4ccccc4)c4ccccc4NC3=O)o2)cc1 (stereo not drawn) [Example 27] | > 800 nM | > 50 µM |  |
| O=C1Nc2ccccc2C(c2ccccc2)=NC1Nc1nnc(-c2ccc(C(F)(F)F)cc2)o1 (stereo not drawn) [Example 28] | > 800 nM | > 50 µM |  |
| O=C1Nc2ccccc2C(c2ccccc2)=NC1Nc1nnc(-c2cccc(C(F)(F)F)c2)o1 (stereo not drawn) [Example 29] | > 800 nM | > 50 µM |  |
| O=C1Nc2ccccc2C(c2ccccc2)=NC1Nc1nnc(-c2ccc(OC(F)(F)F)cc2)o1 (stereo not drawn) [Example 30] | > 800 nM | > 50 µM |  |
| NS(=O)(=O)c1ccc(-c2nnc(NC3N=C(c4ccccc4)c4ccccc4NC3=O)o2)cc1 (stereo not drawn) [Example 31] | 400 to 800 nM | > 50 µM |  |
| N#Cc1cc(-c2nnc(NC3N=C(c4ccccc4)c4ccccc4NC3=O)o2)ccc1F (stereo not drawn) [Example 32] | 400 to 800 nM | > 50 µM |  |
| N#Cc1ccc(-c2nnc(NC3N=C(c4ccccc4)c4ccccc4NC3=O)o2)cc1F (stereo not drawn) [Example 33] | > 800 nM | > 50 µM |  |
| Cc1cc(-c2nnc(NC3N=C(c4ccccc4)c4ccccc4NC3=O)o2)ccc1C#N (stereo not drawn) [Example 34] | 400 to 800 nM | > 50 µM |  |
| N#Cc1cccc(-c2nnc(NC3N=C(c4ccccc4)c4ccccc4NC3=O)o2)c1 (stereo not drawn) [Example 35] | > 800 nM | > 50 µM |  |
| O=C1Nc2ccccc2C(c2ccccc2)=NC1Nc1nnc(-c2ccc(-n3cccn3)cc2)o1 (stereo not drawn) [Example 36] | 400 to 800 nM | 10 to 50 µM |  |
| O=C1Nc2ccccc2C(c2ccccc2)=NC1Nc1nnc(-c2cccnc2)o1 (stereo not drawn) [Example 37] | > 800 nM | > 50 µM |  |
| N#Cc1cc(-c2nnc(NC3N=C(c4ccccc4)c4ccccc4NC3=O)o2)ccn1 (stereo not drawn) [Example 38] | > 800 nM | > 50 µM |  |

| SMILES | EC50 [1, 3] | CC50 at 5 days [2] | EC50 [1, 4] |
| --- | --- | --- | --- |
| O=C1Nc2ccccc2C(c2ccccc2)=NC1Nc1nnc(-c2ccc(=O)[nH]c2)o1 (stereo not drawn) [Example 39] | > 800 nM | > 50 µM |  |
| O=C1Nc2ccccc2C(c2ccccc2)=NC1Nc1nnc(-c2cc[nH]c(=O)c2)o1 (stereo not drawn) [Example 40] | > 800 nM | > 50 µM |  |
| O=C1Nc2ccccc2C(c2ccccc2)=NC1Nc1nnc(-c2ccc3nc[nH]c3c2)o1 (stereo not drawn) [Example 41] | > 800 nM | > 50 µM |  |
| O=C1Nc2ccccc2C(c2ccccc2)=NC1Nc1nnc(-c2cc3cccnc3s2)o1 (stereo not drawn) [Example 43] | > 800 nM | > 50 µM |  |
| CN1CCc2nc(-c3nnc(NC4N=C(c5ccccc5)c5ccccc5NC4=O)o3)sc2C1 (stereo not drawn) [Example 44] | > 800 nM | > 50 µM |  |
| O=C1Nc2ccccc2C(c2ccccc2)=NC1Nc1nnc(C2CCNCC2)o1 (stereo not drawn) [Example 45] | > 800 nM | > 50 µM |  |
| CN1CCC(c2nnc(NC3N=C(c4ccccc4)c4ccccc4NC3=O)o2)CC1 (stereo not drawn) [Example 46] | > 800 nM | > 50 µM |  |
| CC(=O)N1CCC(c2nnc(NC3N=C(c4ccccc4)c4ccccc4NC3=O)o2)CC1 (stereo not drawn) [Example 47] | > 800 nM | > 50 µM |  |
| O=C1Nc2ccccc2C(c2ccccc2)=NC1Nc1nnc([C@@H]2COCCN2)o1 (stereo partly drawn) [Example 48] | > 800 nM | > 50 µM |  |
| O=C1Nc2ccccc2C(c2ccccc2)=NC1Nc1nnc([C@H]2COCCN2)o1 (stereo partly drawn) [Example 49] | > 800 nM | > 50 µM |  |
| O=C1Nc2ccccc2C(c2ccccc2)=N[C@@H]1Nc1nnc(-c2oc3cccc(F)c3c2N2CCOCC2)o1 [Example 477] | < 400 nM |  |  |
| CC1(c2nc(-c3nnc(N[C@H]4N=C(c5ccccc5)c5ccccc5NC4=O)o3)c(N3CCOCC3)s2)CCC1 [Example 478] | < 400 nM |  |  |
| COCCCc1sc(C)nc1-c1nnc(N[C@H]2N=C(c3ccccc3)c3ccccc3NC2=O)o1 [Example 479] | > 800 nM |  |  |
| COC[C@@H]1C[C@H]1c1cc(C(F)(F)F)cnc1-c1nnc(N[C@@H]2N=C(c3ccccc3)c3ccccc3NC2=O)o1 [Example 481] |  |  | > 800 nM |
| COC[C@H]1C[C@@H]1c1cc(C(F)(F)F)cnc1-c1nnc(N[C@H]2N=C(c3ccccc3)c3ccccc3NC2=O)o1 [Example 482] |  |  | > 800 nM |
| COC[C@H]1C[C@@H]1c1cc(C(F)(F)F)cnc1-c1nnc(N[C@@H]2N=C(c3ccccc3)c3ccccc3NC2=O)o1 [Example 483] |  |  | > 800 nM |
| O=C1Nc2ccccc2C(c2ccccc2)=N[C@@H]1Nc1nnc(-c2cn(CC(F)(F)F)nc2N2CCOCC2)o1 [Example 488] |  |  | < 400 nM |
| O=C1Nc2ccccc2C(c2ccccc2)=N[C@H]1Nc1nnc(-c2cn(CC(F)(F)F)nc2N2CCOCC2)o1 [Example 489] |  |  | > 800 nM |
| O=C1Nc2ccccc2C(c2ccccc2)=N[C@@H]1Nc1nnc(-c2nc(C3(C(F)(F)F)CCC3)sc2N2CCOCC2)o1 [Example 490] | < 400 nM |  |  |
